Experimental data reported in ChEMBL document CHEMBL1139882, “Aurantiomides A-C, quinazoline alkaloids from the sponge-derived fungus Penicillium aurantiogriseum SP0-19” (J Nat Prod, 2007).
≈ marks a conversion by molar mass, not a printed value.

Experiments:
[1] = tested on: P388; assay: Cytotoxicity against P388 cells after 72 hrs by MTT assay; type: cell-based, Mus musculus; conditions: for IC50: Mus musculus, P388, 72 h
[2] = tested on: HL-60; assay: Cytotoxicity against HL60 cells after 72 hrs by MTT assay; type: cell-based, Homo sapiens
[3] = Cytotoxicity against BEL-7402 cells after 72 hrs by MTT assay; type: cell-based, Homo sapiens
[4] = tested on: A549; assay: Cytotoxicity against A549 cells after 72 hrs by MTT assay; type: cell-based; conditions: human, a549, 72 h

| SMILES | Activity ([1]; mouse, p388, 72 h) | Activity ([2]; human, hl-60, 72 h) | Activity ([3]; human, bel-7402, 72 h) | Activity [4] | IC50 [1] | IC50 ([2]; Homo sapiens, HL-60, 72 h) | IC50 ([3]; Homo sapiens, Bel-7402, 72 h) |
| --- | --- | --- | --- | --- | --- | --- | --- |
| CO[C@@]1(CC(C)C)NC(=O)[C@H](CCC(N)=O)n2c1nc1ccccc1c2=O [AURANTIOMIDE A] | Not Active | Not Active | Not Active | Not Active | – | – | – |
| CC(C)C[C@]1(O)NC(=O)[C@H](CCC(N)=O)n2c1nc1ccccc1c2=O [AURANTIOMIDE B] | – | – | – | – | 54 µg/mL (≈ 151 µM) | 52 µg/mL (≈ 145 µM) | – |
| CC(C)/C=C1\NC(=O)[C@H](CCC(N)=O)n2c1nc1ccccc1c2=O [AURANTIOMIDE C] | – | – | – | – | 48 µg/mL (≈ 141 µM) | – | 48 µg/mL (≈ 141 µM) |
